# In ChEMBL document CHEMBL4715697, “Synthesis and biological activity of benzamide DNA minor groove binders” (2016):
# How the values were obtained:
# Format in all cases: functional
# KM12 [1] = assay: Growth inhibition of human KM12 cells assessed as cell growth at 0.01 uM incubated for 48 hrs by sulforhodamine B assay relative to control; settings: read-out: Activity
# MOLT-4 [2] = assay: Growth inhibition of human MOLT-4 cells assessed as cell growth at 1 uM incubated for 48 hrs by sulforhodamine B assay relative to control; settings: read-out: Activity
# SK-MEL-5 [3] = assay: Growth inhibition of human SK-MEL-5 cells assessed as cell growth at 0.01 uM incubated for 48 hrs by sulforhodamine B assay relative to control; settings: read-out: Activity
# MDA-MB-468 = assay: Growth inhibition of human MDA-MB-468 cells assessed as cell growth at 0.01 uM incubated for 48 hrs by sulforhodamine B assay relative to control; settings: read-out: Activity
# T47D = assay: Growth inhibition of human T47D cells assessed as cell growth at 0.01 uM incubated for 48 hrs by sulforhodamine B assay relative to control; settings: read-out: Activity
# OVCAR-4 = assay: Growth inhibition of human OVCAR-4 cells incubated for 48 hrs by sulforhodamine B assay
# SNB-19 [4] = assay: Growth inhibition of human SNB-19 cells assessed as cell growth at 100 uM incubated for 48 hrs by sulforhodamine B assay relative to control; settings: read-out: Activity
# SK-MEL-2 = assay: Growth inhibition of human SK-MEL-2 cells assessed as cell growth at 0.01 uM incubated for 48 hrs by sulforhodamine B assay relative to control; settings: read-out: Activity
# LOX IMVI = assay: Growth inhibition of human LOX IMVI cells assessed as cell growth at 100 uM incubated for 48 hrs by sulforhodamine B assay relative to control; settings: read-out: Activity
# MCF7 [5] = assay: Growth inhibition of human MCF7 cells incubated for 48 hrs by sulforhodamine B assay
# M14 [6] = assay: Growth inhibition of human M14 cells incubated for 48 hrs by sulforhodamine B assay
# A549 = assay: Growth inhibition of human A549/ATCC cells assessed as cell growth at 0.01 uM incubated for 48 hrs by sulforhodamine B assay relative to control; settings: read-out: Activity
# HCT-15 = assay: Growth inhibition of human HCT-15 cells assessed as cell growth at 0.01 uM incubated for 48 hrs by sulforhodamine B assay relative to control; settings: read-out: Activity
# COLO 205 [7] = assay: Growth inhibition of human COLO 205 cells assessed as cell growth at 1 uM incubated for 48 hrs by sulforhodamine B assay relative to control; settings: read-out: Activity
# OVCAR-8 = assay: Growth inhibition of human OVCAR-8 cells assessed as cell growth at 100 uM incubated for 48 hrs by sulforhodamine B assay relative to control; settings: read-out: Activity
# MDA-MB-435 = assay: Growth inhibition of human MDA-MB-435 cells assessed as cell growth at 1 uM incubated for 48 hrs by sulforhodamine B assay relative to control; settings: read-out: Activity
# MDA-MB-231 = assay: Growth inhibition of human MDA-MB-231 cells assessed as cell growth at 0.1 uM incubated for 48 hrs by sulforhodamine B assay relative to control; settings: read-out: Activity
# MOLT-4 [8] = assay: Growth inhibition of human MOLT-4 cells assessed as cell growth at 0.01 uM incubated for 48 hrs by sulforhodamine B assay relative to control; settings: read-out: Activity
# RXF 393 = assay: Growth inhibition of human RXF 393 cells assessed as cell growth at 100 uM incubated for 48 hrs by sulforhodamine B assay relative to control; settings: read-out: Activity
# HCT-116 = assay: Growth inhibition of human HCT-116 cells assessed as cell growth at 100 uM incubated for 48 hrs by sulforhodamine B assay relative to control; settings: read-out: Activity
# SNB-75 = assay: Growth inhibition of human SNB-75 cells assessed as cell growth at 0.01 uM incubated for 48 hrs by sulforhodamine B assay relative to control; settings: read-out: Activity
# M14 [9] = assay: Growth inhibition of human M14 cells assessed as cell growth at 100 uM incubated for 48 hrs by sulforhodamine B assay relative to control; settings: read-out: Activity
# COLO 205 [10] = assay: Growth inhibition of human COLO 205 cells assessed as cell growth at 0.1 uM incubated for 48 hrs by sulforhodamine B assay relative to control; settings: read-out: Activity
# KM12 [11] = assay: Growth inhibition of human KM12 cells assessed as cell growth at 0.1 uM incubated for 48 hrs by sulforhodamine B assay relative to control; settings: read-out: Activity
# PC-3 = assay: Growth inhibition of human PC-3 cells assessed as cell growth at 0.01 uM incubated for 48 hrs by sulforhodamine B assay relative to control; settings: read-out: Activity
# TK-10 = assay: Growth inhibition of human TK-10 cells assessed as cell growth at 100 uM incubated for 48 hrs by sulforhodamine B assay relative to control; settings: read-out: Activity
# DU-145 = assay: Growth inhibition of human DU-145 cells assessed as cell growth at 0.1 uM incubated for 48 hrs by sulforhodamine B assay relative to control; settings: read-out: Activity
# SN12C = assay: Growth inhibition of human SN12C cells incubated for 48 hrs by sulforhodamine B assay
# SK-MEL-5 [12] = assay: Growth inhibition of human SK-MEL-5 cells assessed as cell growth at 0.1 uM incubated for 48 hrs by sulforhodamine B assay relative to control; settings: read-out: Activity
# HL-60(TB) = assay: Growth inhibition of human HL-60(TB) cells assessed as cell growth at 100 uM incubated for 48 hrs by sulforhodamine B assay relative to control; settings: read-out: Activity
# IGROV-1 = assay: Growth inhibition of human IGROV-1 cells assessed as cell growth at 100 uM incubated for 48 hrs by sulforhodamine B assay relative to control; settings: read-out: Activity
# U-251 = assay: Growth inhibition of human U-251 cells assessed as cell growth at 0.1 uM incubated for 48 hrs by sulforhodamine B assay relative to control; settings: read-out: Activity
# SNB-19 [13] = assay: Growth inhibition of human SNB-19 cells incubated for 48 hrs by sulforhodamine B assay
# CAKI-1 = assay: Growth inhibition of human CAKI-1 cells assessed as cell growth at 0.01 uM incubated for 48 hrs by sulforhodamine B assay relative to control; settings: read-out: Activity
# ACHN = assay: Growth inhibition of human ACHN cells assessed as cell growth at 1 uM incubated for 48 hrs by sulforhodamine B assay relative to control; settings: read-out: Activity
# MCF7 [14] = assay: Growth inhibition of human MCF7 cells assessed as cell growth at 100 uM incubated for 48 hrs by sulforhodamine B assay relative to control; settings: read-out: Activity
# [15] = read-out: LC50 (the source's name)
# [16] = read-out: pLC50 (the source's name) (converted)
structure (smiles),measurement,setting,value
CC(=O)Nc1cc(CCl)cc(NC(=O)c2ccc(C(=O)Nc3cccc(NC(=O)CCCN(C)C)c3)cc2)c1,growth at 0.01 µM,KM12 [1],105%
same,growth at 1 µM,MOLT-4 [2],99%
same,growth at 0.01 µM,SK-MEL-5 [3],96%
same,growth at 0.01 µM,MDA-MB-468,90%
same,growth at 0.01 µM,T47D,106%
same,GI50,OVCAR-4; read-out: GI50,> 100 µM
same,LC50 (concentration killing 50% of cells),OVCAR-4; read-out: LC50,> 100 µM
same,TGI,OVCAR-4; read-out: TGI,> 100 µM
same,GI50,OVCAR-4; read-out: pGI50 (converted),> 100 µM
same,LC50 (concentration killing 50% of cells),OVCAR-4; read-out: pLC50 (converted),> 100 µM
same,TGI,OVCAR-4; read-out: pTGI,> 100 µM
same,growth at 100 µM,SNB-19 [4],117%
same,growth at 0.01 µM,SK-MEL-2,107%
same,growth at 100 µM,LOX IMVI,75%
same,GI50,MCF7 [5]; read-out: GI50,30.1 µM
same,CC50,MCF7 [5]; [15],> 100 µM
same,TGI,MCF7 [5]; read-out: TGI,> 100 µM
same,GI50,MCF7 [5]; read-out: pGI50 (converted),30.2 µM
same,CC50,MCF7 [5]; [16],> 100 µM
same,TGI,MCF7 [5]; read-out: pTGI,> 100 µM
same,GI50,M14 [6]; read-out: GI50,> 100 µM
same,CC50,M14 [6]; [15],> 100 µM
same,TGI,M14 [6]; read-out: TGI,> 100 µM
same,GI50,M14 [6]; read-out: pGI50 (converted),> 100 µM
same,CC50,M14 [6]; [16],> 100 µM
same,TGI,M14 [6]; read-out: pTGI,> 100 µM
same,growth at 0.01 µM,A549,104%
same,growth at 0.01 µM,HCT-15,94%
same,growth at 1 µM,COLO 205 [7],109%
same,growth at 100 µM,OVCAR-8,96%
same,growth at 1 µM,MDA-MB-435,97%
same,growth at 0.1 µM,MDA-MB-231,106%
same,growth at 0.01 µM,MOLT-4 [8],102%
same,growth at 100 µM,RXF 393,96%
same,growth at 100 µM,HCT-116,82%
same,growth at 0.01 µM,SNB-75,82%
same,growth at 100 µM,M14 [9],91%
same,growth at 0.1 µM,COLO 205 [10],108%
same,growth at 0.1 µM,KM12 [11],108%
same,growth at 0.01 µM,PC-3,104%
same,growth at 100 µM,TK-10,129%
same,growth at 0.1 µM,DU-145,106%
same,GI50,SN12C; read-out: GI50,> 100 µM
same,CC50,SN12C; [15],> 100 µM
same,TGI,SN12C; read-out: TGI,> 100 µM
same,GI50,SN12C; read-out: pGI50 (converted),> 100 µM
same,CC50,SN12C; [16],> 100 µM
same,TGI,SN12C; read-out: pTGI,> 100 µM
same,growth at 0.1 µM,SK-MEL-5 [12],92%
same,growth at 100 µM,HL-60(TB),90%
same,growth at 100 µM,IGROV-1,100%
same,growth at 0.1 µM,U-251,94%
same,GI50,SNB-19 [13]; read-out: GI50,> 100 µM
same,CC50,SNB-19 [13]; [15],> 100 µM
same,TGI,SNB-19 [13]; read-out: TGI,> 100 µM
same,GI50,SNB-19 [13]; read-out: pGI50 (converted),> 100 µM
same,CC50,SNB-19 [13]; [16],> 100 µM
same,TGI,SNB-19 [13]; read-out: pTGI,> 100 µM
same,growth at 0.01 µM,CAKI-1,100%
same,growth at 1 µM,ACHN,96%
same,growth at 100 µM,MCF7 [14],27%
CC(=O)Nc1cc(CO[Si](C)(C)C(C)(C)C)cc(NC(=O)c2ccc(C(=O)Nc3cccc(NC(=O)CCCN(C)C)c3)cc2)c1,growth at 0.01 µM,KM12 [1],98%
same,growth at 1 µM,MOLT-4 [2],91%
same,growth at 0.01 µM,SK-MEL-5 [3],98%
same,growth at 0.01 µM,MDA-MB-468,93%
same,growth at 0.01 µM,T47D,99%
same,GI50,OVCAR-4; read-out: GI50,> 75 µM
same,LC50 (concentration killing 50% of cells),OVCAR-4; read-out: LC50,> 75 µM
same,TGI,OVCAR-4; read-out: TGI,> 75 µM
same,GI50,OVCAR-4; read-out: pGI50 (converted),> 75.9 µM
same,LC50 (concentration killing 50% of cells),OVCAR-4; read-out: pLC50 (converted),> 75.9 µM
same,TGI,OVCAR-4; read-out: pTGI,> 75.9 µM
same,growth at 100 µM,SNB-19 [4],95%
same,growth at 0.01 µM,SK-MEL-2,100%
same,growth at 100 µM,LOX IMVI,84%
same,GI50,MCF7 [5]; read-out: GI50,29.7 µM
same,CC50,MCF7 [5]; [15],> 75 µM
same,TGI,MCF7 [5]; read-out: TGI,> 75 µM
same,GI50,MCF7 [5]; read-out: pGI50 (converted),29.5 µM
same,CC50,MCF7 [5]; [16],> 75.9 µM
same,TGI,MCF7 [5]; read-out: pTGI,> 75.9 µM
same,GI50,M14 [6]; read-out: GI50,> 75 µM
same,CC50,M14 [6]; [15],> 75 µM
same,TGI,M14 [6]; read-out: TGI,> 75 µM
same,GI50,M14 [6]; read-out: pGI50 (converted),> 75.9 µM
same,CC50,M14 [6]; [16],> 75.9 µM
same,TGI,M14 [6]; read-out: pTGI,> 75.9 µM
same,growth at 0.01 µM,A549,99%
same,growth at 0.01 µM,HCT-15,93%
same,growth at 1 µM,COLO 205 [7],109%
same,growth at 100 µM,OVCAR-8,88%
same,growth at 1 µM,MDA-MB-435,94%
same,growth at 0.1 µM,MDA-MB-231,95%
same,growth at 0.01 µM,MOLT-4 [8],87%
same,growth at 100 µM,RXF 393,83%
same,growth at 100 µM,HCT-116,85%
same,growth at 0.01 µM,SNB-75,93%
same,growth at 100 µM,M14 [9],75%
same,growth at 0.1 µM,COLO 205 [10],100%
same,growth at 0.1 µM,KM12 [11],100%
same,growth at 0.01 µM,PC-3,100%
same,growth at 100 µM,TK-10,98%
same,growth at 0.1 µM,DU-145,100%
same,GI50,SN12C; read-out: GI50,> 75 µM
same,CC50,SN12C; [15],> 75 µM
same,TGI,SN12C; read-out: TGI,> 75 µM
same,GI50,SN12C; read-out: pGI50 (converted),> 75.9 µM
same,CC50,SN12C; [16],> 75.9 µM
same,TGI,SN12C; read-out: pTGI,> 75.9 µM
same,growth at 0.1 µM,SK-MEL-5 [12],97%
same,growth at 100 µM,HL-60(TB),88%
same,growth at 100 µM,IGROV-1,75%
same,growth at 0.1 µM,U-251,100%
same,GI50,SNB-19 [13]; read-out: GI50,> 75 µM
same,CC50,SNB-19 [13]; [15],> 75 µM
same,TGI,SNB-19 [13]; read-out: TGI,> 75 µM
same,GI50,SNB-19 [13]; read-out: pGI50 (converted),> 75.9 µM
same,CC50,SNB-19 [13]; [16],> 75.9 µM
same,TGI,SNB-19 [13]; read-out: pTGI,> 75.9 µM
same,growth at 0.01 µM,CAKI-1,92%
same,growth at 1 µM,ACHN,98%
same,growth at 100 µM,MCF7 [14],32%
